Experimental findings from the OligoGym collection are described below.

Oligonucleotides are given in HELM: sugar(base)linkage, 5' to 3'; d 2'-deoxyribose, r ribose, m 2'-O-methylribose, p phosphate. ss, as = sense and antisense strand
Also: test concentration or dose not given here.

The target of this series is Cacnb1 (rat). Briefly: reporter assay of Huesken 2005. The note with it: siRNA. (In general: Reporter assays use an easily measured gene product as a stand-in for the process of interest.)
“RNA1{r(G)p.r(G)p.r(C)p.r(U)p.r(C)p.r(C)p.r(U)p.r(G)p.r(G)p.r(G)p.r(A)p.r(A)p.r(G)p.r(A)p.r(G)p.r(G)p.r(A)p.r(G)p.r(G)p.d(T)p.d(T)}|RNA2{r(C)p.r(C)p.r(U)p.r(C)p.r(C)p.r(U)p.r(C)p.r(U)p.r(U)p.r(C)p.r(C)p.r(C)p.r(A)p.r(G)p.r(G)p.r(A)p.r(G)p.r(C)p.r(C)p.d(C)p.d(T)}$$$RNA1{StrandType:ss}|RNA2{StrandType:as}$” gave a normalised inhibition (eCFP-eYFP dual reporter) of 46.7%.
As to “RNA1{r(G)p.r(G)p.r(G)p.r(G)p.r(A)p.r(G)p.r(C)p.r(U)p.r(G)p.r(G)p.r(G)p.r(C)p.r(C)p.r(A)p.r(G)p.r(C)p.r(C)p.r(C)p.r(C)p.d(T)p.d(T)}|RNA2{r(G)p.r(G)p.r(G)p.r(G)p.r(C)p.r(U)p.r(G)p.r(G)p.r(C)p.r(C)p.r(C)p.r(A)p.r(G)p.r(C)p.r(U)p.r(C)p.r(C)p.r(C)p.r(C)p.d(G)p.d(G)}$$$RNA1{StrandType:ss}|RNA2{StrandType:as}$”, the normalised inhibition (eCFP-eYFP dual reporter) was found to be 19.2%.
In turn, “RNA1{r(G)p.r(U)p.r(A)p.r(C)p.r(U)p.r(G)p.r(C)p.r(A)p.r(G)p.r(A)p.r(G)p.r(G)p.r(C)p.r(U)p.r(C)p.r(A)p.r(U)p.r(C)p.r(A)p.d(T)p.d(T)}|RNA2{r(U)p.r(G)p.r(A)p.r(U)p.r(G)p.r(A)p.r(G)p.r(C)p.r(C)p.r(U)p.r(C)p.r(U)p.r(G)p.r(C)p.r(A)p.r(G)p.r(U)p.r(A)p.r(C)p.d(C)p.d(T)}$$$RNA1{StrandType:ss}|RNA2{StrandType:as}$” returned a normalised inhibition (eCFP-eYFP dual reporter) of 73.6%.
On to “RNA1{r(G)p.r(U)p.r(G)p.r(C)p.r(C)p.r(A)p.r(A)p.r(A)p.r(C)p.r(A)p.r(G)p.r(A)p.r(A)p.r(G)p.r(C)p.r(A)p.r(G)p.r(A)p.r(A)p.d(T)p.d(T)}|RNA2{r(U)p.r(U)p.r(C)p.r(U)p.r(G)p.r(C)p.r(U)p.r(U)p.r(C)p.r(U)p.r(G)p.r(U)p.r(U)p.r(U)p.r(G)p.r(G)p.r(C)p.r(A)p.r(C)p.d(T)p.d(G)}$$$RNA1{StrandType:ss}|RNA2{StrandType:as}$”, for which the normalised inhibition (eCFP-eYFP dual reporter) came out at 82.1%.
The result for “RNA1{r(G)p.r(U)p.r(G)p.r(C)p.r(G)p.r(G)p.r(A)p.r(G)p.r(G)p.r(G)p.r(U)p.r(G)p.r(G)p.r(U)p.r(G)p.r(G)p.r(G)p.r(C)p.r(C)p.d(T)p.d(T)}|RNA2{r(G)p.r(G)p.r(C)p.r(C)p.r(C)p.r(A)p.r(C)p.r(C)p.r(A)p.r(C)p.r(C)p.r(C)p.r(U)p.r(C)p.r(C)p.r(G)p.r(C)p.r(A)p.r(C)p.d(A)p.d(G)}$$$RNA1{StrandType:ss}|RNA2{StrandType:as}$” reads 52.4%; that for “RNA1{r(U)p.r(A)p.r(C)p.r(A)p.r(C)p.r(G)p.r(G)p.r(A)p.r(G)p.r(C)p.r(C)p.r(A)p.r(G)p.r(G)p.r(A)p.r(G)p.r(A)p.r(C)p.r(U)p.d(T)p.d(T)}|RNA2{r(A)p.r(G)p.r(U)p.r(C)p.r(U)p.r(C)p.r(C)p.r(U)p.r(G)p.r(G)p.r(C)p.r(U)p.r(C)p.r(C)p.r(G)p.r(U)p.r(G)p.r(U)p.r(A)p.d(G)p.d(A)}$$$RNA1{StrandType:ss}|RNA2{StrandType:as}$”, 54.9%.
The result for “RNA1{r(U)p.r(A)p.r(C)p.r(A)p.r(U)p.r(C)p.r(C)p.r(G)p.r(C)p.r(U)p.r(G)p.r(A)p.r(G)p.r(A)p.r(G)p.r(G)p.r(C)p.r(A)p.r(G)p.d(T)p.d(T)}|RNA2{r(C)p.r(U)p.r(G)p.r(C)p.r(C)p.r(U)p.r(C)p.r(U)p.r(C)p.r(A)p.r(G)p.r(C)p.r(G)p.r(G)p.r(A)p.r(U)p.r(G)p.r(U)p.r(A)p.d(G)p.d(A)}$$$RNA1{StrandType:ss}|RNA2{StrandType:as}$” reads 39.5%; that for “RNA1{r(U)p.r(C)p.r(C)p.r(U)p.r(G)p.r(C)p.r(A)p.r(C)p.r(A)p.r(U)p.r(C)p.r(A)p.r(A)p.r(G)p.r(G)p.r(A)p.r(G)p.r(A)p.r(A)p.d(T)p.d(T)}|RNA2{r(U)p.r(U)p.r(C)p.r(U)p.r(C)p.r(C)p.r(U)p.r(U)p.r(G)p.r(A)p.r(U)p.r(G)p.r(U)p.r(G)p.r(C)p.r(A)p.r(G)p.r(G)p.r(A)p.d(A)p.d(G)}$$$RNA1{StrandType:ss}|RNA2{StrandType:as}$”, 94%.
The value for “RNA1{r(U)p.r(C)p.r(G)p.r(A)p.r(C)p.r(A)p.r(G)p.r(A)p.r(G)p.r(C)p.r(A)p.r(C)p.r(G)p.r(U)p.r(G)p.r(C)p.r(C)p.r(C)p.r(C)p.d(T)p.d(T)}|RNA2{r(G)p.r(G)p.r(G)p.r(G)p.r(C)p.r(A)p.r(C)p.r(G)p.r(U)p.r(G)p.r(C)p.r(U)p.r(C)p.r(U)p.r(G)p.r(U)p.r(C)p.r(G)p.r(A)p.d(C)p.d(T)}$$$RNA1{StrandType:ss}|RNA2{StrandType:as}$” was 39.9%; that for “RNA1{r(U)p.r(C)p.r(G)p.r(G)p.r(G)p.r(A)p.r(G)p.r(G)p.r(C)p.r(U)p.r(G)p.r(G)p.r(U)p.r(G)p.r(A)p.r(A)p.r(G)p.r(G)p.r(A)p.d(T)p.d(T)}|RNA2{r(U)p.r(C)p.r(C)p.r(U)p.r(U)p.r(C)p.r(A)p.r(C)p.r(C)p.r(A)p.r(G)p.r(C)p.r(C)p.r(U)p.r(C)p.r(C)p.r(C)p.r(G)p.r(A)p.d(T)p.d(C)}$$$RNA1{StrandType:ss}|RNA2{StrandType:as}$” was 73.7%.
The substance “RNA1{r(U)p.r(G)p.r(G)p.r(A)p.r(C)p.r(A)p.r(G)p.r(C)p.r(C)p.r(U)p.r(U)p.r(C)p.r(G)p.r(C)p.r(C)p.r(U)p.r(G)p.r(C)p.r(U)p.d(T)p.d(T)}|RNA2{r(A)p.r(G)p.r(C)p.r(A)p.r(G)p.r(G)p.r(C)p.r(G)p.r(A)p.r(A)p.r(G)p.r(G)p.r(C)p.r(U)p.r(G)p.r(U)p.r(C)p.r(C)p.r(A)p.d(G)p.d(T)}$$$RNA1{StrandType:ss}|RNA2{StrandType:as}$” came in with a normalised inhibition (eCFP-eYFP dual reporter) of 39.5%.
“RNA1{r(U)p.r(G)p.r(G)p.r(U)p.r(G)p.r(G)p.r(G)p.r(A)p.r(C)p.r(C)p.r(A)p.r(U)p.r(C)p.r(G)p.r(C)p.r(U)p.r(C)p.r(A)p.r(A)p.d(T)p.d(T)}|RNA2{r(U)p.r(U)p.r(G)p.r(A)p.r(G)p.r(C)p.r(G)p.r(A)p.r(U)p.r(G)p.r(G)p.r(U)p.r(C)p.r(C)p.r(C)p.r(A)p.r(C)p.r(C)p.r(A)p.d(G)p.d(G)}$$$RNA1{StrandType:ss}|RNA2{StrandType:as}$” came in with a normalised inhibition (eCFP-eYFP dual reporter) of 71.2%.
The value for “RNA1{r(U)p.r(U)p.r(A)p.r(G)p.r(C)p.r(C)p.r(C)p.r(A)p.r(G)p.r(C)p.r(U)p.r(C)p.r(G)p.r(A)p.r(G)p.r(A)p.r(A)p.r(A)p.r(G)p.d(T)p.d(T)}|RNA2{r(C)p.r(U)p.r(U)p.r(U)p.r(C)p.r(U)p.r(C)p.r(G)p.r(A)p.r(G)p.r(C)p.r(U)p.r(G)p.r(G)p.r(G)p.r(C)p.r(U)p.r(A)p.r(A)p.d(G)p.d(G)}$$$RNA1{StrandType:ss}|RNA2{StrandType:as}$” was 63.7%.
The result for “RNA1{r(U)p.r(U)p.r(U)p.r(C)p.r(A)p.r(U)p.r(C)p.r(C)p.r(C)p.r(C)p.r(A)p.r(G)p.r(C)p.r(C)p.r(C)p.r(U)p.r(G)p.r(U)p.r(C)p.d(T)p.d(T)}|RNA2{r(G)p.r(A)p.r(C)p.r(A)p.r(G)p.r(G)p.r(G)p.r(C)p.r(U)p.r(G)p.r(G)p.r(G)p.r(G)p.r(A)p.r(U)p.r(G)p.r(A)p.r(A)p.r(A)p.d(C)p.d(C)}$$$RNA1{StrandType:ss}|RNA2{StrandType:as}$” reads 16.4%.
